Assay results taken from patent EP4817688A2, “DEGRADING PKCß1 TO TREAT CANCER” (Mayo Foundation for Medical Education and Research, priority 2020, dated 2022).
Several values for one entry are separate records, joined by “and”; a condition that tells them apart may be missing. Identical values can stand only once.

What was measured:
[1] = pharmacokinetics in female CD1 mice, plasma by UPLC-MS/MS; assay type: in vivo; settings: plasma
Protocol: ENDX PROTAC 7 and PROTAC 9 pharmacokinetics were characterized in female CD1 mice. Blood samples were collected from mice anesthetized under isoflurane via retro-orbital eye bleed into tubes containing EDTA and immediately chilled on ice. NaF was added to the EDTA collection tubes to help stabilize the drug in whole blood for the second IV and IP studies with ENDX PROTAC 9, and for the IV and oral studies with PROTAC 7. Plasma and red blood cells were separated immediately by centrifugation in a refrigerated centrifuge at 4°C. The plasma was transferred to a separate tube and immediately frozen at -20°C.
For IV dosing, ENDX PROTAC 9 was dissolved in 10% DMSO, 10% PEG 400, and 80% normal saline for a final concentration of 0.2 mg/mL ENDX PROTAC 9 for the 1 mg/kg IV doses. ENDX PROAC 7 was dissolved in 15% DMSO, 9.44% PEG400, and 55% normal saline for a final concentration of 0.19 mg/mL for the 1 mg/kg IV doses. Blood samples (3 mice per time-point) were collected 5 minutes, 15 minutes, 0.5 hour, 1 hour, 2 hours, 4 hours, 8 hours, and 24 hours after administration of the ENDX PROTAC. […] For oral dosing, ENDX PROTAC 9 (10 mg/kg) and ENDX PROTAC 7 (10 mg/kg) were suspended in 1 mM ascorbic acid:PEG400, 1:1 v/v for a final concentration of 1.0 mg/mL ENDX PROTAC. Blood samples (three mice per time-point) were collected 15 minutes, 0.5 hour, 1 hour, 2 hours, 4 hours, 6 hours, 8 hours, and 24 hours after administering the ENDX PROTAC. For I.P. dosing, ENDX PROTAC 9 (4 mg/kg) was prepared in 1 mM ascorbic acid:PEG400, 1:1 v/v for a final concentration of 0.4 mg/mL ENDX PROTAC 9. Blood samples (three mice per time-point) were collected 15 minutes, 0.5 hour, 1 hour, 2 hours, 4 hours, 6 hours, 8 hours, and 24 hours after administration. Plasma concentrations of ENDX PROTAC 7 and 9 were measured using UPLC-MS/MS.

[2] = system: MDAMB231 cells; assay: crystal violet (CV) proliferation assay, MDAMB231; assay type: cell-based; settings: Homo sapiens, MDA-MB-231, MDAMB231 (PKCβ1^high, Rb^positive) 2000 cells
Protocol: Cell proliferation rates were determined using crystal violet assays. One thousand cells per well were plated in 96 well tissue culture plates and treated the following day with a bifunctional compound or control for 7 days in replicates of 8. Cells were fixed with 25% glutaraldehyde for 10 minutes with shaking, washed 5 times with distilled water, stained with a 1% crystal violet solution (solubilized in 25% methanol) for 10 minutes, washed again 5 times and allowed to dry. De-staining was performed using […] sodium citrate in 50% ethanol followed by quantification using a 96 well spectrophotometer set at an absorbance of 550 nm.

SMILES: CCC(=C(c1ccc(O)cc1)c1ccc(OCCN(C)C(=O)COCCOCCNC(=O)Cc2ccc3c(c2)CN(C2CCC(=O)NC2=O)C3=O)cc1)c1ccccc1 (centres unmarked) [TC-Pr-009, 2-[2-(2-2-[2-(2,6-dioxopiperidin-3-yl)-1-oxo-2,3-dihydro-1H-isoindol-5-yl]acetamidoethoxy)ethoxy]-N-(2-4-[1-(4-hydroxyphenyl)-2-phenylbut-1-en-1-yl]phenoxyethyl)-N-methylacetamide]
- Concentration ENDX PROTAC 9 ([1]; IV 1 mg/kg, EDTA without NaF, 60 minutes, individual mice, listed as ENDX PROTAC 9, 1 mg/kg): 0.5069 ng/mL and 0.2706 ng/mL and 0.0179 ng/mL
- Concentration ENDX PROTAC 9 ([1]; IV 1 mg/kg, EDTA without NaF, 120 minutes, individual mice, listed as ENDX PROTAC 9, 1 mg/kg): 0.8988 ng/ml and 0.4446 ng/ml and BLD
- Concentration ENDX PROTAC 9 ([1]; IV 1 mg/kg, EDTA without NaF, 240 minutes, individual mice, listed as ENDX PROTAC 9, 1 mg/kg): BLD and 0.0197 ng/ml and 0.3141 ng/ml
- Concentration ENDX PROTAC 9 ([1]; IV 1 mg/kg, EDTA without NaF, 480 minutes, individual mice, listed as ENDX PROTAC 9, 1 mg/kg): 0 ng/ml and BLD (2×)
- Concentration ENDX PROTAC 9 ([1]; IV 1 mg/kg, EDTA without NaF, 1440 minutes, individual mice, listed as ENDX PROTAC 9, 1 mg/kg): BLD and 0 ng/ml (2×)
- Concentration ENDX PROTAC 9 ([1]; IV 1 mg/kg, all data (both IV studies), 30 minutes, listed as ENDX PROTAC 9, 1 mg/kg): 1.662 ng/mL
- Concentration ENDX PROTAC 9 ([1]; IV 1 mg/kg, all data (both IV studies), 120 minutes, listed as ENDX PROTAC 9, 1 mg/kg): BLD
- Concentration ENDX PROTAC 9 ([1]; IV 1 mg/kg, all data (both IV studies), 240 minutes, listed as ENDX PROTAC 9, 1 mg/kg): BLD
- Concentration ENDX PROTAC 9 ([1]; IV 1 mg/kg, second study (NaF), 5 minutes, individual mice, listed as ENDX PROTAC 9, 1 mg/kg): 86.31 ng/mL and 91.46 ng/mL and 34.87 ng/mL
- Concentration ENDX PROTAC 9 ([1]; IV 1 mg/kg, second study (NaF), 15 minutes, individual mice, listed as ENDX PROTAC 9, 1 mg/kg): 8.2 ng/mL and 33.8 ng/mL and 10.72 ng/mL
- Concentration ENDX PROTAC 9 ([1]; IV 1 mg/kg, second study (NaF), 60 minutes, individual mice, listed as ENDX PROTAC 9, 1 mg/kg): 1.18 ng/mL and 1.26 ng/mL and 12.64 ng/mL
- Concentration ENDX PROTAC 9 ([1]; IV 1 mg/kg, second study (NaF), 240 minutes, individual mice, listed as ENDX PROTAC 9, 1 mg/kg): 0.19 ng/mL and 1.11 ng/mL and 0.39 ng/mL
- Concentration ENDX PROTAC 9 ([1]; PO 10 mg/kg, 15 minutes, individual mice, listed as ENDX PROTAC 9, 10 mg/kg): 6.95 ng/mL and 4.77 ng/mL and 2.11 ng/mL
- Concentration ENDX PROTAC 9 ([1]; PO 10 mg/kg, 30 minutes, individual mice, listed as ENDX PROTAC 9, 10 mg/kg): 0.58 ng/mL and 1.05 ng/mL
- Concentration ENDX PROTAC 9 ([1]; PO 10 mg/kg, 60 minutes, individual mice, listed as ENDX PROTAC 9, 10 mg/kg): 6.78 ng/mL and 15.8 ng/mL and 10.6 ng/mL
- Concentration ENDX PROTAC 9 ([1]; PO 10 mg/kg, 120 minutes, individual mice, listed as ENDX PROTAC 9, 10 mg/kg): 0.25 ng/ml and BLD* and 0.55 ng/ml
- Concentration ENDX PROTAC 9 ([1]; PO 10 mg/kg, 240 minutes, individual mice, listed as ENDX PROTAC 9, 10 mg/kg): 0.9 ng/mL and 0.16 ng/mL and 0.14 ng/mL
- Concentration ENDX PROTAC 9 ([1]; PO 10 mg/kg, 360 minutes, individual mice, listed as ENDX PROTAC 9, 10 mg/kg): 2.61 ng/ml and BLD and 0.05 ng/ml
- Concentration ENDX PROTAC 9 ([1]; PO 10 mg/kg, 480 minutes, individual mice, listed as ENDX PROTAC 9, 10 mg/kg): BLD
- Concentration ENDX PROTAC 9 ([1]; PO 10 mg/kg, 1440 minutes, individual mice): BLD
- Concentration ENDX PROTAC 9 ([1]; TABLE 7, titled PO pk (10 mg/kg), 15 minutes, individual mice, listed as ENDX PROTAC 9, 10 mg/kg): 111.19 ng/mL and 133.09 ng/mL
- Concentration ENDX PROTAC 9 ([1]; TABLE 7, titled PO pk (10 mg/kg), 30 minutes, individual mice, listed as ENDX PROTAC 9, 10 mg/kg): 156.42 ng/mL and 83.56 ng/mL
- Concentration ENDX PROTAC 9 ([1]; TABLE 7, titled PO pk (10 mg/kg), 60 minutes, individual mice, listed as ENDX PROTAC 9, 10 mg/kg): 141.51 ng/mL and 93.93 ng/mL
- Concentration ENDX PROTAC 9 ([1]; TABLE 7, titled PO pk (10 mg/kg), 120 minutes, individual mice, listed as ENDX PROTAC 9, 10 mg/kg): 60.32 ng/mL and 106.7 ng/mL and 40.51 ng/mL
- Concentration ENDX PROTAC 9 ([1]; TABLE 7, titled PO pk (10 mg/kg), 240 minutes, individual mice, listed as ENDX PROTAC 9, 10 mg/kg): 17.29 ng/mL and 5.09 ng/mL and 30.55 ng/mL
- Concentration ENDX PROTAC 9 ([1]; TABLE 7, titled PO pk (10 mg/kg), 360 minutes, individual mice, listed as ENDX PROTAC 9, 10 mg/kg): 1.64 ng/mL and 0.75 ng/mL and 2.62 ng/mL
- Concentration ENDX PROTAC 9 ([1]; TABLE 7, titled PO pk (10 mg/kg), 480 minutes, individual mice, listed as ENDX PROTAC 9, 10 mg/kg): 7.23 ng/mL and 1.2 ng/mL
- Concentration ENDX PROTAC 9 ([1]; TABLE 7, titled PO pk (10 mg/kg), 1440 minutes, individual mice, listed as ENDX PROTAC 9, 10 mg/kg): 1.01 ng/mL and 0.33 ng/mL and 0.12 ng/mL
- IC50 [2]: 131 nM
